Our source for the inhibition values is ChEMBL document CHEMBL1147781, “Design, synthesis and in vitro antimalarial activity of an acylhydrazone library” (Bioorg Med Chem Lett, 2006).

The structures appear in SMILES notation.

For the assay, the system named is Plasmodium falciparum. The assay is described as follows: Growth inhibition of chloroquine-resistant Plasmodium falciparum FcB1 at 1 uM. The class given is functional.
As to `O=C(N/N=C/c1ccc(O)cc1O)c1ccc([N+](=O)[O-])cc1`, 1 µM produced 18% inhibition.
For the compound `COc1ccc(C(=O)N/N=C/c2ccccc2O)cc1`, the inhibition at 1 µM came out at 14%.
In the case of `CC(=O)N/N=C/c1cc(O)ccc1O`, at 1 µM the inhibition was 25%.
In turn, `O=C(Cc1ccccc1)N/N=C/c1cc(Br)ccc1O` gave an inhibition at 1 µM of 33%.
In turn, `CC(C)(C)c1ccc(C(=O)N/N=C/c2ccccc2O)cc1` gave an inhibition at 1 µM of 43%.
The compound `Cc1ccc(O)c(/C=N/NC(=O)c2ccncc2)c1` gave an inhibition at 1 µM of 8%.
In turn, `O=C(N/N=C/c1cc([N+](=O)[O-])ccc1O)c1cccnc1` gave an inhibition at 1 µM of 19%.
As for `COc1ccc(C(=O)N/N=C/c2cc([N+](=O)[O-])ccc2O)cc1`, at 1 µM the inhibition was 26%.
In the case of `COc1ccc(C(=O)N/N=C/c2cccc(O)c2O)cc1`, testing at 1 µM gave an inhibition of 21%.
Turning to `O=C(N/N=C/c1cc(Br)ccc1O)c1ccc([N+](=O)[O-])cc1`, at 1 µM the inhibition was 17%.
With `O=C(N/N=C/c1ccccc1O)c1ccco1`, the inhibition at 1 µM came to 21%.
For `O=C(N/N=C/c1cc(Br)ccc1O)c1ccccc1` the value was 47%; for `O=C(N/N=C/c1cccc(O)c1O)c1ccccc1`, 30%; for `O=C(N/N=C/c1cc(O)ccc1O)c1ccc(Cl)cc1`, 25%.
For `O=C(N/N=C/c1ccc(O)cc1O)c1ccc(Cl)cc1` the value was 16%; for `O=C(N/N=C/c1ccccc1O)c1ccccc1`, 35%.
In turn, `COc1ccc(C(=O)N/N=C/c2ccc(OC)cc2O)cc1` returned an inhibition at 1 µM of 9%.
With `CC(=O)N/N=C/c1cc(Br)ccc1O` the figure was 17%.
`Cc1ccc(O)c(/C=N/NC(=O)Cc2ccccc2)c1` had an inhibition at 1 µM of 19%.
Regarding `COc1ccc(/C=N/NC(=O)c2ccco2)c(O)c1`, the inhibition at 1 µM is 45%.
For `CCN(CC)c1ccc(/C=N/NC(=O)c2ccncc2)c(O)c1`, testing at 1 µM gave an inhibition of 18%.
For `O=C(N/N=C/c1cccc(O)c1O)c1ccc([N+](=O)[O-])cc1` the value was 24%.
For `COc1cccc(/C=N/NC(=O)c2ccc(C(C)(C)C)cc2)c1O` the value was 39%.
As to `CC(=O)N/N=C/c1cc([N+](=O)[O-])ccc1O`, 1 µM produced 22% inhibition.
For `COc1cccc(/C=N/NC(=O)c2ccc(Cl)cc2)c1O` the value was 36%; for `CC(C)(C)c1ccc(C(=O)N/N=C/c2cc([N+](=O)[O-])ccc2O)cc1`, 36%; for `CCN(CC)c1ccc(/C=N/NC(=O)c2ccc(Cl)cc2)c(O)c1`, 45%.
Consider `CC(C)(C)c1ccc(C(=O)N/N=C/c2cc(O)ccc2O)cc1`, for which the inhibition at 1 µM amounted to 38%.
Compound `O=C(N/N=C/c1ccccc1O)c1ccncc1` [SALINAZID] yielded an inhibition at 1 µM of 22%.
`COc1ccc(O)c(/C=N/NC(=O)c2ccc(C(C)(C)C)cc2)c1` gave an inhibition at 1 µM of 47%.
`O=C(N/N=C/c1cc(O)ccc1O)c1ccc([N+](=O)[O-])cc1` displayed an inhibition at 1 µM of 28%.
For `COc1cccc(/C=N/NC(=O)Cc2ccccc2)c1O` the value was 30%; for `COc1cccc(/C=N/NC(=O)c2cccs2)c1O`, 16%.
For `COc1ccc(O)c(/C=N/NC(=O)Cc2ccccc2)c1` the value was 45%; for `COc1ccc(/C=N/NC(=O)c2ccc(C(C)(C)C)cc2)c(O)c1`, 43%.
The compound `O=C(Cc1ccccc1)N/N=C/c1cc(O)ccc1O` yielded an inhibition at 1 µM of 4%.
As for `COc1ccc(C(=O)N/N=C/c2cc(Br)ccc2O)cc1`, the inhibition at 1 µM was 29%.
With `COc1cccc(/C=N/NC(=O)c2ccco2)c1O` the figure was 41%; with `O=C(N/N=C/c1ccc(O)cc1O)c1cccnc1`, 23%; with `CCN(CC)c1ccc(/C=N/NC(=O)c2cccs2)c(O)c1`, 37%.
Regarding `O=C(N/N=C/c1ccccc1O)c1ccc([N+](=O)[O-])cc1`, 1 µM produced 4% inhibition.
In the case of `CC(C)(C)c1ccc(O)c(/C=N/NC(=O)c2ccc(O)cc2)c1`, the inhibition at 1 µM came out at 31%.
For the compound `O=C(N/N=C/c1cc([N+](=O)[O-])ccc1O)c1ccc(O)cc1`, the inhibition at 1 µM is 4%.
For `O=C(Cc1ccccc1)N/N=C/c1cccc(O)c1O` the value was 19%.
In turn, `O=C(N/N=C/c1cc(Br)ccc1O)c1ccncc1` displayed an inhibition at 1 µM of 29%.
For `COc1ccc(/C=N/NC(=O)c2ccncc2)c(O)c1` the value was 35%; for `O=C(N/N=C/c1cc([N+](=O)[O-])ccc1O)c1cccs1`, 21%; for `COc1ccc(/C=N/NC(=O)Cc2ccccc2)c(O)c1`, 41%.
As to `O=C(N/N=C/c1cccc(O)c1O)c1cccs1`, at 1 µM the inhibition was 29%.
With `COc1ccc(C(=O)N/N=C/c2cc(OC)ccc2O)cc1` the figure was 18%.
`COc1ccc(O)c(/C=N/NC(=O)c2ccc([N+](=O)[O-])cc2)c1` had an inhibition at 1 µM of 14%.
With `O=C(N/N=C/c1ccc(O)cc1O)c1ccco1` the figure was 13%; with `O=C(N/N=C/c1cc([N+](=O)[O-])ccc1O)c1ccco1`, 16%.
On to `CCN(CC)c1ccc(/C=N/NC(=O)c2cccnc2)c(O)c1`, for which the inhibition at 1 µM turned out to be 2%.
In turn, `COc1cccc(/C=N/NC(C)=O)c1O` came in with an inhibition at 1 µM of 33%.
`CC(=O)N/N=C/c1cc(C)ccc1O`: the inhibition at 1 µM is 32%.
`COc1cccc(/C=N/NC(=O)c2ccc([N+](=O)[O-])cc2)c1O` registered an inhibition at 1 µM of 32%.
The compound `CCN(CC)c1ccc(/C=N/NC(C)=O)c(O)c1` gave an inhibition at 1 µM of 34%.
In turn, `COc1ccc(/C=N/NC(=O)c2ccc(Cl)cc2)c(O)c1` registered an inhibition at 1 µM of 8%.
With `CC(=O)N/N=C/c1ccccc1O` the figure was 0%; with `O=C(N/N=C/c1cc(Br)ccc1O)c1ccco1`, 35%.
With `CC(C)(C)c1ccc(O)c(/C=N/NC(=O)c2ccncc2)c1` the figure was 40%; with `O=C(N/N=C/c1cc(Br)ccc1O)c1cccnc1`, 21%; with `O=C(N/N=C/c1cc([N+](=O)[O-])ccc1O)c1ccncc1`, 15%.
As for `O=C(N/N=C/c1cc(Br)ccc1O)c1ccc(O)cc1`, the inhibition at 1 µM worked out at 10%.
For `CC(=O)N/N=C/c1cccc(O)c1O` the value was 29%; for `CC(C)(C)c1ccc(O)c(/C=N/NC(=O)c2cccnc2)c1`, 32%; for `COc1ccc(O)c(/C=N/NC(=O)c2ccc(O)cc2)c1`, 20%.
For the compound `O=C(N/N=C/c1ccc(O)cc1O)c1ccc(O)cc1`, the inhibition at 1 µM came to 15%.
`CC(=O)N/N=C/c1cc(C(C)(C)C)ccc1O`: the inhibition at 1 µM was found to be 32%.
The compound `COc1ccc(/C=N/NC(=O)c2ccc(O)cc2)c(O)c1` gave an inhibition at 1 µM of 14%.
For `Cc1ccc(O)c(/C=N/NC(=O)c2cccnc2)c1`, the inhibition at 1 µM is 33%.
Turning to `CC(C)(C)c1ccc(O)c(/C=N/NC(=O)c2ccco2)c1`, the inhibition at 1 µM came to 14%.
In the case of `COc1ccc(/C=N/NC(=O)c2ccccc2)c(O)c1`, the inhibition at 1 µM was found to be 32%.
`O=C(N/N=C/c1cc(O)ccc1O)c1cccnc1` returned an inhibition at 1 µM of 7%.
In the case of `COc1ccc(/C=N/NC(=O)c2cccnc2)c(O)c1`, the inhibition at 1 µM was found to be 38%.
`COc1cccc(/C=N/NC(=O)c2ccc(O)cc2)c1O` had an inhibition at 1 µM of 16%.
Take `O=C(N/N=C/c1cc(O)ccc1O)c1ccccc1`: at 1 µM the inhibition was 0%.
As to `O=C(N/N=C/c1cc(Br)ccc1O)c1ccc(Cl)cc1`, testing at 1 µM gave an inhibition of 36%.
`COc1ccc(/C=N/NC(=O)c2cccs2)c(O)c1` registered an inhibition at 1 µM of 24%.
With `COc1ccc(O)c(/C=N/NC(=O)c2ccc(Cl)cc2)c1`, at 1 µM the inhibition was 24%.
The compound `CC(C)(C)c1ccc(C(=O)N/N=C/c2ccc(O)cc2O)cc1` came in with an inhibition at 1 µM of 37%.
Regarding `CCN(CC)c1ccc(/C=N/NC(=O)c2ccc(OC)cc2)c(O)c1`, the inhibition at 1 µM worked out at 39%.
The compound `COc1ccc(O)c(/C=N/NC(=O)c2cccs2)c1` gave an inhibition at 1 µM of 24%.
Consider `O=C(N/N=C/c1cc(O)ccc1O)c1ccc(O)cc1`, for which 1 µM produced 4% inhibition.
`O=C(N/N=C/c1ccccc1O)c1cccnc1` [N'-(2-HYDROXYBENZYLIDENE)NICOTINOHYDRAZIDE] returned an inhibition at 1 µM of 26%.
Compound `O=C(N/N=C/c1cccc(O)c1O)c1ccc(Cl)cc1` came in with an inhibition at 1 µM of 13%.
In the case of `CC(C)(C)c1ccc(O)c(/C=N/NC(=O)Cc2ccccc2)c1`, at 1 µM the inhibition was 14%.
With `COc1ccc(O)c(/C=N/NC(=O)c2cccnc2)c1`, the inhibition at 1 µM came to 24%.
With `O=C(N/N=C/c1cc(O)ccc1O)c1cccs1`, the inhibition at 1 µM came out at 19%.
For `CCN(CC)c1ccc(/C=N/NC(=O)c2ccc(O)cc2)c(O)c1` the value was 12%; for `COc1ccc(O)c(/C=N/NC(=O)c2ccncc2)c1`, 34%; for `COc1ccc(/C=N/NC(C)=O)c(O)c1`, 4%.
Take `Cc1ccc(O)c(/C=N/NC(=O)c2ccc(O)cc2)c1`: the inhibition at 1 µM worked out at 24%.
Turning to `O=C(N/N=C/c1cc([N+](=O)[O-])ccc1O)c1ccccc1`, the inhibition at 1 µM was 21%.
The compound `Cc1ccc(O)c(/C=N/NC(=O)c2ccccc2)c1` gave an inhibition at 1 µM of 49%.
As for `CC(C)(C)c1ccc(C(=O)N/N=C/c2cc(C(C)(C)C)ccc2O)cc1`, the inhibition at 1 µM was determined as 48%.
`COc1cccc(/C=N/NC(=O)c2ccncc2)c1O` returned an inhibition at 1 µM of 43%.
As to `O=C(Cc1ccccc1)N/N=C/c1cc([N+](=O)[O-])ccc1O`, at 1 µM the inhibition was 0%.
Compound `CCN(CC)c1ccc(/C=N/NC(=O)c2ccco2)c(O)c1` displayed an inhibition at 1 µM of 23%.
`COc1ccc(C(=O)N/N=C/c2ccc(O)cc2O)cc1` registered an inhibition at 1 µM of 29%.
The compound `O=C(N/N=C/c1cccc(O)c1O)c1cccnc1` yielded an inhibition at 1 µM of 16%.
Turning to `O=C(N/N=C/c1cc([N+](=O)[O-])ccc1O)c1ccc(Cl)cc1`, the inhibition at 1 µM worked out at 31%.
For the compound `O=C(N/N=C/c1ccccc1O)c1ccc(O)cc1`, testing at 1 µM gave an inhibition of 11%.
In the case of `COc1ccc(C(=O)N/N=C/c2cc(O)ccc2O)cc1`, the inhibition at 1 µM was found to be 39%.
